For one assay, the system named is caspase 8. The assay can be described thus: FLICA caspase-8 activity, flow cytometry. The format is cell-based, human. The note with it: 5 µM, 24 h, MCF-7. The procedure:
To determine the effects of the novel compounds on the caspases-3/7, caspase-8, caspase-9, and caspase-10 activity, the FLICA Caspase-3/7 Assay Kit, FLICA Caspase-8 Assay Kit, FLICA Caspase-9 Assay Kit, and FLICA Caspase-10 Assay Kit were applied (ImmunoChemistry Technologies, Bloomington, MN, USA). MCF-7 cells were seeded on 6-well plates (1 × 10^5 cells per well) and incubated for 24 h. Afterwards, they were treated for 24 h with tested compounds (Les-6416, Les-6418, Les-6381, Les-6423, and Les-6424) in a concentration of 5 µM and the reference drug doxorubicin hydrochloride in a concentration of 0.5 µM. Next, cells were amassed and washed two times with cold PBS, followed by resuspension in an Apoptosis Wash Buffer to a final concentration of 5 × 10^5 cells/mL. Afterwards, 290 µL of the prepared cell suspensions were transferred into tubes, followed by the addition of 10 µL of FLICA solution, prepared immediately before use, to each sample and incubated for an hour at 37 °C. Next, cells were washed two times with 2 mL of Apoptosis Wash Buffer, provided in the kit, centrifuged, and resuspended in 300 µL of the buffer. Prepared samples were assessed by a BD FACSCanto II flow cytometer (Becton Dickinson Biosciences, San Jose, CA, USA). For each sample, 1 × 10^4 events were analyzed. The obtained results were investigated by applying FACSDiva software Version 6.1.3 (BD Biosciences Systems, San Jose, CA, USA).
To further investigate the effects of the newly synthesized compounds on the process of apoptosis we decided to measure their impact on various caspases as evidence of intrinsic (caspase 9) or extrinsic (caspase 8, 10) pathways of programmed cell death by applying flow cytometry analysis after 24 h treatment of MCF-7 breast cancer cells with novel 4-thiazolidinone derivatives and reference drug doxorubicin hydrochloride. […] With 41.28 ± 5.45%, 43.23 ± 2.85%, and 41.90 ± 6.89% of cells with activated caspase 8, 10, and 9, respectively, Les-6416 continued the trend of displaying the most significant effect on the three tested caspases. […]
(In general: In flow cytometry, cells or beads pass a laser one at a time.)

For assay [1], the system named is MCF-7 cells. The assay can be described thus: JC-1 mitochondrial membrane potential, flow cytometry. Format: cell-based, human. Particulars: 5 µM, 24 h, MCF-7, JC-1. The procedure: Lipophilic fluorochrome JC-1 (5,5′,6,6′-tetrachloro-1,1′,3,3′-tetraethylbenzimidazolcarbocyanine iodide) (BD Biosciences, San Diego, CA, USA) was applied to determine the novel structures’ effects on the MMP [35]. MCF-7 cells were seeded on 6-well plates at 5 × 10^6 cells per well, followed by incubation for 24 h. Afterwards, the cells were treated for 24 h with new 4-thiazolidinone derivatives (Les-6416, Les-6418, Les-6381, Les-6423, and Les-6424) in a concentration of 5 µM and the reference drug doxorubicin hydrochloride in a concentration of 0.5 µM. Then, cells were collected at a concentration of 1 × 10^6 cells/mL and washed two times with PBS. Next, 0.5 mL of the pre-prepared JC-1 working solution was added to each sample in accordance with the instructions of the manufacturer, followed by incubation at 37 °C for 15 min in a CO2 incubator. After that, an assay buffer was added to each sample to wash the cells several times. Afterwards, 0.5 mL from each sample was transferred to the tubes for immediate assessment using a BD FACSCanto II flow cytometer (Becton Dickinson Biosciences, San Jose, CA, USA). For each sample, 1 × 10^4 events were analyzed. The obtained results were investigated by applying FACSDiva software Version 6.1.3 (BD Biosciences Systems, San Jose, CA, USA).
A critical determinant of the induction of the intrinsic pathway of apoptosis is the decrease in mitochondrial membrane potential (ΔΨm). To investigate the effects of the novel 4-thiazolidinones on mitochondrial membrane potential, flow cytometry analysis of JC-1 dye was applied. JC-1 is a carbocyanine lipophilic cationic fluorochrome whose fluorescence depends on the MMP. Red fluorescence is emitted in viable cells with healthy mitochondria; however, apoptotic or necrotic cells with damaged mitochondria emit green fluorescence.

Assay [2] has as its system MCF-7 cells. Kind of assay: [3H]-thymidine incorporation assay. Format: cell-based. Particulars: Homo sapiens, 24 h, read-out: [3H]-thymidine incorporation (% of control); for activity at 1 µM: MCF7, 1 µM; for activity at 2.5 µM: MCF7, 2.5 µM; for activity at 5 µM: MCF7, 5 µM. As to the method: To evaluate the effects of synthesized compounds and reference drug on cell proliferation [3H]-thymidine incorporation assay was applied. MCF-7 cells were seeded on 6-well plates as described before. After 24 h of incubation, the cells were treated with different concentrations of novel 4-thiazolidinone derivatives Les-6416, Les-6418 (1, 2.5, 5 µM), and doxorubicin hydrochloride (0.5 and 1 µM) for 24 h at 37 °C. After 24 h, the medium was changed to a fresh one without fetal bovine serum. A total of 0.5 µCi of tritium-labeled thymidine (specific activity: 7 Ci/mmol) was added to cells for 4 h. Afterwards, the cells were washed with 1 mL of 0.05 M Tris-HCl buffer pH 7.4 containing 0.11 M NaCl and […] 5% trichloroacetic acid (TCA). Each well was filled with 1 mL of a 0.1 M NaOH solution with 1% SDS for cell lysis. After 5 min, the cell lysates were transferred to scintillation vials, which were pre-filled beforehand with two milliliters of scintillation cocktail Ultima Gold XR from PerkinElmer (Waltham, MA, USA). The Scintillation Counter 1900 TR, TRI-CARB (Packard, Perkin Elmer, Inc., San Jose, CA, USA) was used to record the results. The radioactivity observed in untreated control cells was taken as 100%. The values of the tested compound were expressed as a percentage of the control value.
To investigate the antiproliferative activity of Les-6416 and Les-6418 on the MCF-7 cell line after 24 h of treatment, the [^3H]-thymidine incorporation assay was applied. Based on the outcome of previous analysis and the structural similarity of the tested compounds, 5, 2.5, and 1 µM concentrations were applied for this research. The obtained results are shown in the graph below (Figure 2). […] Formidable results also were obtained from the reference drug doxorubicin hydrochloride: 26.00 ± 7.07% for 1 µM and 43.50 ± 3.54% for 0.5 µM

Each structure is given as a SMILES string. Where a name gives a salt, the structure may show the parent alone.

For the compound `COc1ccc(C=C2SC(Nc3cc(OC)c(OC)c(OC)c3)=NC2=O)cc1` [Les-6381, 5-(4-Methoxybenzylidene)-2-((3,4,5-trimethoxyphenyl)amino)thiazol-4(5H)-one], the “cells with active caspase 8” value with caspase 8 is recorded as 19.8 ± 3.69%. Besides, the “Reduced ΔΨm, cell population” value in the assay with MCF-7 cells [1] is listed as 27.95 ± 1.43%.

Regarding `COc1cc(NC2=NC(=O)C(=Cc3ccc4cc[nH]c4c3)S2)cc(OC)c1OC` [Les-6416, 5-((1H-Indol-6-yl)methylene)-2-((3,4,5-trimethoxyphenyl)amino)thiazol-4(5H)-one], the “cells with active caspase 8” value in the assay on caspase 8 was found to be 41.28 ± 5.45%. Besides, in the assay on MCF-7 cells [2], the activity at 1 µM was determined as 69 ± 1.41%, the activity at 2.5 µM was 27 ± 5.66% and the activity at 5 µM came to 21.5 ± 2.12%. Further, the “Reduced ΔΨm, cell population” value in the assay on MCF-7 cells [1] was determined as 33.80 ± 0.85%.

On to `COc1cccc2c1C(=O)c1c(O)c3c(c(O)c1C2=O)C[C@@](O)(C(=O)CO)C[C@@H]3O[C@H]1C[C@H](N)[C@H](O)[C@H](C)O1` [DOX, Doxorubicin hydrochloride, reference compound], for which the activity at 0.5 µM with MCF-7 cells [2] (MCF7, 0.5 µM) came to 43.5 ± 3.54%. Also, the activity at 1 µM in the assay on MCF-7 cells [2] worked out at 26 ± 7.07%.

For the compound `COc1cc(NC2=NC(=O)C(=Cc3cccs3)S2)cc(OC)c1OC` [Les-6423, 5-(Thiophen-2-ylmethylene)-2-((3,4,5-trimethoxyphenyl)amino)thiazol-4(5H)-one], in the assay on caspase 8, the “cells with active caspase 8” value worked out at 18.13 ± 1.96%.

Consider `COc1cc(NC2=NC(=O)C(=Cc3c[nH]c4ccccc34)S2)cc(OC)c1OC` [Les-6418, 5-((1H-Indol-3-yl)methylene)-2-((3,4,5-trimethoxyphenyl)amino)thiazol-4(5H)-one], for which, in the assay with MCF-7 cells [2], the activity at 1 µM came out at 95.5 ± 7.78%, the activity at 2.5 µM amounted to 72 ± 12.7% and the activity at 5 µM was determined as 48.5 ± 12%. The “Reduced ΔΨm, cell population” value in the assay with MCF-7 cells [1] stood at 22.35 ± 3.06%.

These data come from article PMC12190436, “5-Ene-2-arylaminothiazol-4(5H)-ones Induce Apoptosis in Breast Cancer Cells” (Cells, 2025).
